Measured values: ChEMBL document CHEMBL1146045, “Design of novel, potent, and selective human beta-tryptase inhibitors based on alpha-keto-[1,2,4]-oxadiazoles” (Bioorg Med Chem Lett, 2006)
In brackets after ≈: the same amount, converted by molar mass.

Experiments:
Trypsin = Trypsin (Homo sapiens, UniProt P07477+P07478+P35030); assay: Inhibition of human trypsin; assay type: protein assay
Tryptase beta-1 = Tryptase beta-1 (Homo sapiens, UniProt Q15661); assay: Inhibition of human beta tryptase
[1] = Solubility at pH 7.4; assay type: physicochemical; conditions: buffer
hERG (KCNH2) [2] = molecular target: T1, hERG (KCNH2) (Homo sapiens, UniProt Q12809); assay: Inhibition of hERG at 1 uM; assay type: toxicity
T1 sequence (Q12809 whole entry): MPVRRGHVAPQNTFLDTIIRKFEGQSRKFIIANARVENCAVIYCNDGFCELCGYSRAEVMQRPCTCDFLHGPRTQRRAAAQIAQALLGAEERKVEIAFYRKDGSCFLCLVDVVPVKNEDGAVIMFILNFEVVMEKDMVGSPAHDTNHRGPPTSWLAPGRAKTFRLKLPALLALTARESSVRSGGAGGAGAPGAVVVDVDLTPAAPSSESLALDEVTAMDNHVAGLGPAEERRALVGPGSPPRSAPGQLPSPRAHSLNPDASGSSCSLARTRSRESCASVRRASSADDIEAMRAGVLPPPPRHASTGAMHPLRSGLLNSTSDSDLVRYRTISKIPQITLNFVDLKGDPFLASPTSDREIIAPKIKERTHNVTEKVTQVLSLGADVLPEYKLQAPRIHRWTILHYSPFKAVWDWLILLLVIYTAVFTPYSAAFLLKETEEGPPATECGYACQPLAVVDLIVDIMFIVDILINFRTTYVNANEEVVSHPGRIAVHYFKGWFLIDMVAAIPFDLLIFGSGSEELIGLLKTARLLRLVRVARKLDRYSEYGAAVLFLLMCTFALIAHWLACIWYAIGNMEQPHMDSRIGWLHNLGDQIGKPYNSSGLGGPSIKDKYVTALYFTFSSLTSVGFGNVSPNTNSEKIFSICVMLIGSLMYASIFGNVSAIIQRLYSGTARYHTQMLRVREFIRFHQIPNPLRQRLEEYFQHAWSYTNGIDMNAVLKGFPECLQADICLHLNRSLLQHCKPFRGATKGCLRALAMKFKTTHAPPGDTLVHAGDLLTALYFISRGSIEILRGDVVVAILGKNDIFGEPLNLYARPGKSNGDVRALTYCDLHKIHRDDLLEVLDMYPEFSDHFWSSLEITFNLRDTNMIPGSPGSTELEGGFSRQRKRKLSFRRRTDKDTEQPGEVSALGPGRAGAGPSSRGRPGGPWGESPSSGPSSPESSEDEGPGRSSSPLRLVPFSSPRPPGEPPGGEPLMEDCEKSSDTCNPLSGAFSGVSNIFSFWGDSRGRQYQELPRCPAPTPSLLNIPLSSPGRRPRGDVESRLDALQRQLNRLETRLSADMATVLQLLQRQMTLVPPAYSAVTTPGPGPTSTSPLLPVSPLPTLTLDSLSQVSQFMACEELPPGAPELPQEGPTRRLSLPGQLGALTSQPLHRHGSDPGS

[3] = Stability in human liver microsome after 1 hr; assay type: ADME; conditions: liver microsomes, read-out: Stability
hERG (KCNH2) [4] = molecular target: T1, hERG (KCNH2); assay: Inhibition of hERG at 10 uM; assay type: toxicity
Coagulation factor X = Coagulation factor X (Homo sapiens, UniProt P00742); assay: Inhibition of F10a
Coagulation factor X, sequence (P00742 41-179 limits assumed): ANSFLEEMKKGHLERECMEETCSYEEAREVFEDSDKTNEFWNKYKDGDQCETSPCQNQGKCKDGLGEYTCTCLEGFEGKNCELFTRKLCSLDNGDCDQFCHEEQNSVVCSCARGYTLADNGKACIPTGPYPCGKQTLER
Coagulation factor X, sequence (P00742 235-488 limits assumed): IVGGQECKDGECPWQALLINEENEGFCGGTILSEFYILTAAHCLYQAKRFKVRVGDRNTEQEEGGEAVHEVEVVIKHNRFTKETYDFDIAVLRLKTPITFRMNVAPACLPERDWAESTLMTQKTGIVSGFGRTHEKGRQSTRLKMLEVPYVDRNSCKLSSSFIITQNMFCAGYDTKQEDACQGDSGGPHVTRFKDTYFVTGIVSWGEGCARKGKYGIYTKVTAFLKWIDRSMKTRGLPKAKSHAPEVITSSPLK

Prothrombin = Prothrombin (Homo sapiens, UniProt P00734); assay: Inhibition of thrombin
Coagulation factor VII = molecular target: T2, Coagulation factor VII (Homo sapiens, UniProt P08709); assay: Inhibition of F7a
T2 sequence (P08709 whole entry): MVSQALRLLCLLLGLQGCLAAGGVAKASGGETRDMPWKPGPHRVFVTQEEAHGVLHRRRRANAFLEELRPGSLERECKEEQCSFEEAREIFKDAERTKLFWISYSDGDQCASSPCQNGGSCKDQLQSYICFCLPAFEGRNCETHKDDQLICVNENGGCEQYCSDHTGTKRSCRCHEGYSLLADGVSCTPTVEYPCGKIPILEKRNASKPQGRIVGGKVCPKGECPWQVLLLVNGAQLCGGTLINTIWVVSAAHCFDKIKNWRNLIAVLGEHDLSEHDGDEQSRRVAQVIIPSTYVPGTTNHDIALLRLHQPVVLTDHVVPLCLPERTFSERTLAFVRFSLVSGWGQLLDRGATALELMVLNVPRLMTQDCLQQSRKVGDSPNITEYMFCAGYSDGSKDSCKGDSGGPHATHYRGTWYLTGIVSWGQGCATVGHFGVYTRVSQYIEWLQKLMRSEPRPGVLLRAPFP

Tryptase beta-1, sequence (Q15661 whole entry): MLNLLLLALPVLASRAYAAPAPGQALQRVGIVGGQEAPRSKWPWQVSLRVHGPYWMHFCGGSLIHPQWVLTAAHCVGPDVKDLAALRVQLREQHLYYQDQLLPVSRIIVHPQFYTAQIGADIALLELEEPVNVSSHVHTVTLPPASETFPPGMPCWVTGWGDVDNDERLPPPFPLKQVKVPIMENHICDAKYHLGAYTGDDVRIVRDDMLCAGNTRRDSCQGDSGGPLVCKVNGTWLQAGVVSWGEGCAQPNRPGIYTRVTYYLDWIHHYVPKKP

Compound | Ki (Trypsin) [nM] | Ki (Tryptase beta-1) [nM] | solubility [1] [µM] | further results
CCOC(=O)N[C@@H](CCCCN)C(=O)c1noc(Cc2ccc(C(=O)NCCc3cccc(Cl)c3)cc2)n1 | 180 | 1.9 | 471 (≈ 255 µg/mL) | 
NCCCC[C@H](NC(=O)OCc1ccccc1)C(=O)c1noc(CN2CCN(CCCc3ccccc3)CC2)n1 |  | 11 | 329 (≈ 181 µg/mL) | 
CC(C)CCNC(=O)c1ccc(Cc2nc(C(=O)[C@H](CCCCN)NC(=O)OCc3ccccc3)no2)cc1 | 29 | 9.9 | 364 (≈ 195 µg/mL) | inhibition at 1 µM (hERG (KCNH2) [2]): 0%
NCCCC[C@H](NC(=O)c1cc(F)cc(F)c1)C(=O)c1noc(Cc2ccc(C(=O)NCCc3cccc(Cl)c3)cc2)n1 | 410 | 1.5 | 313 (≈ 191 µg/mL) | 
NCCCC[C@H](NC(=O)c1cccc(F)c1)C(=O)c1noc(Cc2ccc(C(=O)NCCc3cccc(Cl)c3)cc2)n1 | 280 | 1.7 | 422 (≈ 250 µg/mL) | 
COc1ccc(Cc2nc(C(=O)[C@H](CCCCN)NC(=O)OCc3ccccc3)no2)cc1 | 22 | 770 | 348 (≈ 157 µg/mL) | 
NCCCC[C@H](NC(=O)OCc1ccccc1)C(=O)c1noc(CN2CCN(C(=O)CCCc3ccccc3)CC2)n1 | 22 | 34 | > 500 | remaining at 1 h [3]: 2%; inhibition at 10 µM (hERG (KCNH2) [4]): 2.3%
NCCCC[C@H](NC(=O)OCc1ccccc1)C(=O)c1noc(Cc2ccc(C(=O)NCCc3ccccc3)cc2)n1 | 20 | 3.2 | 440 (≈ 251 µg/mL) | 
NCCCC[C@H](NC(=O)OCc1ccccc1)C(=O)c1noc(Cc2ccc(C(=O)NC3Cc4ccccc4C3)cc2)n1 | 21 | 3.7 | 206 (≈ 120 µg/mL) | Ki (Coagulation factor X): 100000 nM; Ki (Prothrombin): 48000 nM; Ki (Coagulation factor VII): 140000 nM
NCCCC[C@H](NC(=O)OCc1ccccc1)C(=O)c1noc(Cc2ccc(C(=O)NCCc3cccs3)cc2)n1 | 13 | 2.4 | 484 (≈ 279 µg/mL) | inhibition at 10 µM (hERG (KCNH2) [4]): 7.2%
NCCCC[C@H](NC(=O)OCc1ccccc1)C(=O)c1noc(Cc2ccc(C(=O)NCCCCc3ccccc3)cc2)n1 | 14 | 60 | 188 (≈ 112 µg/mL) | 
NCCCC[C@H](NC(=O)OCc1ccccc1)C(=O)c1noc(Cc2ccc(C(=O)N3CCN(Cc4ccccc4F)CC3)cc2)n1 | 3.7 | 140 | 472 (≈ 303 µg/mL) | 
CCOC(=O)N[C@@H](CCCCN)C(=O)c1noc(Cc2ccc(C(=O)NC3Cc4ccccc4C3)cc2)n1 | 170 |  |  | Ki (Coagulation factor X): 140000 nM; remaining at 1 h [3]: 64%; Ki (Prothrombin): 60000 nM; Ki (Coagulation factor VII): > 150000 nM
NCCCC[C@H](NC(=O)OCc1ccccc1)C(=O)c1noc(Cc2ccc(C(=O)NC/C=C/c3ccccc3)cc2)n1 | 18 | 3.6 | 226 (≈ 131 µg/mL) | 
NCCCC[C@H](NC(=O)OCc1ccccc1)C(=O)c1noc(Cc2ccc(C(=O)NCCc3cccc(C(F)(F)F)c3)cc2)n1 | 30 | 8.2 | 284 (≈ 181 µg/mL) | 
NCCCC[C@H](NC(=O)OCc1ccccc1)C(=O)c1noc(CN2CCN(CCCCc3ccccc3)CC2)n1 | 12 | 5.8 | 466 (≈ 262 µg/mL) | remaining at 1 h [3]: 22%
NCCCC[C@H](NC(=O)OCc1ccccc1)C(=O)c1noc(CN2CCN(C(=O)OCc3ccccc3)CC2)n1 | 42 | 470 |  | 
NCCCC[C@H](NC(=O)OCc1ccccc1)C(=O)c1noc(Cc2ccc(C(=O)NCCCc3ccccc3)cc2)n1 | 19 | 3 | 370 (≈ 216 µg/mL) | 
NCCCC[C@H](NC(=O)OCc1ccccc1)C(=O)c1noc(Cc2ccc(C(=O)NCc3ccccc3)cc2)n1 | 23 | 37 | 459 (≈ 255 µg/mL) | 

Continued, in another order:

Ki (Trypsin) [nM] | Ki (Tryptase beta-1) [nM] | solubility [1] [µM] | Compound | further results
18 | 3.5 | 333 (≈ 202 µg/mL) | NCCCC[C@H](NC(=O)OCc1ccccc1)C(=O)c1noc(Cc2ccc(C(=O)NCCc3cc(F)cc(F)c3)cc2)n1 | 
34 | 39 | 245 (≈ 143 µg/mL) | Cc1ccc(CNC(=O)c2ccc(Cc3nc(C(=O)[C@H](CCCCN)NC(=O)OCc4ccccc4)no3)cc2)cc1C | 
15 | 11 | 100 (≈ 60.6 µg/mL) | NCCCC[C@H](NC(=O)OCc1ccccc1)C(=O)c1noc(Cc2ccc(C(=O)NCc3ccc4ccccc4c3)cc2)n1 | 
33 | 230 |  | NCCCC[C@H](NC(=O)OCc1ccccc1)C(=O)c1noc(CN2CCN(C(=O)CCc3ccccc3)CC2)n1 | 
26 | 13 | 77.2 (≈ 46.8 µg/mL) | NCCCC[C@H](NC(=O)OCc1ccccc1)C(=O)c1noc(Cc2ccc(C(=O)NCc3cccc4ccccc34)cc2)n1 | 
240 | 1.8 | 390 (≈ 231 µg/mL) | NCCCC[C@H](NC(=O)c1ccc(F)cc1)C(=O)c1noc(Cc2ccc(C(=O)NCCc3cccc(Cl)c3)cc2)n1 | 
470 | 2 | 30 (≈ 16.6 µg/mL) | CC(C)(C)C(=O)N[C@@H](CCCCN)C(=O)c1noc(Cc2ccc(C(=O)NCCc3cccc(Cl)c3)cc2)n1 | 
11 | 2.9 | 299 (≈ 180 µg/mL) | NCCCC[C@H](NC(=O)OCc1ccccc1)C(=O)c1noc(Cc2ccc(C(=O)NCCOc3ccc(F)cc3)cc2)n1 | 
330 | 1.9 |  | NCCCC[C@H](NC(=O)c1ccc(Cl)cc1)C(=O)c1noc(Cc2ccc(C(=O)NCCc3cccc(Cl)c3)cc2)n1 | 
23 | 1.8 | 109 (≈ 65.8 µg/mL) | NCCCC[C@H](NC(=O)OCc1ccccc1)C(=O)c1noc(Cc2ccc(C(=O)NCCc3cccc(Cl)c3)cc2)n1 | 
31 | 16 |  | NCCCC[C@H](NC(=O)OCc1ccccc1)C(=O)c1noc(Cc2ccc(C(=O)NCCc3ccc(Cl)c(Cl)c3)cc2)n1 | 
330 | 2.1 | 337 (≈ 208 µg/mL) | NCCCC[C@H](NC(=O)c1ccc2c(c1)OCO2)C(=O)c1noc(Cc2ccc(C(=O)NCCc3cccc(Cl)c3)cc2)n1 | 
440 | 1.7 | 349 (≈ 213 µg/mL) | NCCCC[C@H](NC(=O)c1ccc(F)c(F)c1)C(=O)c1noc(Cc2ccc(C(=O)NCCc3cccc(Cl)c3)cc2)n1 | 
27 | 220 | 227 (≈ 145 µg/mL) | NCCCC[C@H](NC(=O)OCc1ccccc1)C(=O)c1noc(Cc2ccc(C(=O)NCCc3ccc(C(F)(F)F)cc3)cc2)n1 | 
 |  | 23 (≈ 12.5 µg/mL) | NCCCC[C@H](NC(=O)OCc1ccccc1)C(=O)c1noc(Cc2ccc(OCCc3ccccc3)cc2)n1 | inhibition at 1 µM (hERG (KCNH2) [2]): 40%
